Read-outs that look alike come from different tables or passages of the source. *1 amine or outer side, *2 acyl side, *3 side chain or, on linkers, in order; H or OH if unused. Where a SMILES comes first, the peptide text is derived from it. Side-chain parts run from the residue outwards. [ ]: non-standard residue; d: D form. The star is where a group is joined. NH(4-amidinophenyl) = N=C(N)c1ccc(N*)cc1; dPhe(4-Cl) = N[C@H](Cc1ccc(Cl)cc1)C(=O)O; d2Nal = N[C@H](Cc1ccc2ccccc2c1)C(=O)O; dCit = NC(=O)NCCC[C@@H](N)C(=O)O; d3Pal = N[C@H](Cc1cccnc1)C(=O)O; Suc = O=C(CCC(=O)[*:2])[*:1]
What was measured:
human LH-RH receptor [1] = molecular target: T1, human LH-RH receptor (Homo sapiens, UniProt P30968); assay: Competitive binding test (displacement of [125I] Cetrorelix) on cell clone L3.5/78
T1 construct: expressed in transfected cells
T1 sequence (P30968 1-328): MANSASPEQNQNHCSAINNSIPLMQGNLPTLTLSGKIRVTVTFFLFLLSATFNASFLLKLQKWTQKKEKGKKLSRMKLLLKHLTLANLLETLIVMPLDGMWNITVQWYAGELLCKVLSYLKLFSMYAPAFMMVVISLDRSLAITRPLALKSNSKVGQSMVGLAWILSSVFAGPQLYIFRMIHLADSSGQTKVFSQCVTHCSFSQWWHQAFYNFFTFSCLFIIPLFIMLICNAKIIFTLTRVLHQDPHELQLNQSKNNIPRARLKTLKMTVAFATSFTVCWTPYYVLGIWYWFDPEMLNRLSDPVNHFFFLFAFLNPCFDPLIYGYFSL
Protocol: Method for the determination of the binding affinity (dissociation constant Kd):
The binding affinity was determined by a competitive binding test ("displacement binding experiment"; Beckers et al. Eur. J. Biochem. 231, 535-543, 1995). The radiolabelled ligand used is [^125 I] Cetrorelix (specific activity 5-10×10^5 dpm/pmol; dissolved in 20% v:v acetonitrile, 0.2% w:v albumin, 0.1% w:v TFA, ~80% v:v aqua). The binding ability of the iodinated peptide is between 60% and 85%. The non-labelled test compounds used are Cetrorelix, Example 1, Example 2 and […] in solution. The substances are employed in concentrations of 0.01 nM-1000 nM (Cetrorelix, Example 1, Example 2) or 0.01 μM-10 μM (Example 56).
The cells of the individual cell clone L3.5/78 verexpressing the human LH-RH receptor which are used for the binding test are removed with PBS/EDTA (PBS without Ca^2+ /Mg^2+ /1 mM EDTA) from a cell culture dish grown under non-confluent conditions, the cell count is determined and the cells are resuspended in incubation medium (Dulbecco's modified Eagle Medium with 4.5 g/l glucose, 10 mM Hepes pH 7.5, 0.5% w:v BSA, 1 g/l bacitracin, 0.1 g/l SBTI, 0.1% w:v NaN3) at a corresponding cell density. 200 μl of silicone/paraffin oil mixture (84/16% by volume) are initially introduced into special 400 μl reaction vessels (Renner, Beckman type) and 50 μl of the cell suspension (2.5×10^5 cells) are pipetted onto it. 50 μl of binding medium containing [^125 I] Cetrorelix and the compound to be tested at the appropriate concentration are added to the cell suspension on the silicone/paraffin oil layer. The mixture is then incubated with rotation for 60 min at 37° C. in a warm cabinet. After this step, it is centrifuged at 9000 rpm (room temperature) for 2 min in the Heraeus Biofuge 15 in the HTA 13.8 rotor. In the course of this, the cells pelletize through the silicone/paraffin oil layer and are thus separated from the binding medium. After centrifugation, the reaction vessels are shock-frozen in liquid N2 and the tip of the reaction vessel (cell pellet) is cut off with a pair of pincers and the tip containing the cell pellet (bound ligand [^125 I] Cetrorelix) and the supernatant (unbound, free ligand [^125 I] Cetrorelix) are transferred to counting tubes. To determine the maximum binding (Bo), no competitor is added. For the determination of non-specific binding, 1 μM unlabelled Cetrorelix is added for competition. At ≤10% of the total binding Bo, the non-specific binding is low. Quantification is carried out in a γ-counter; analysis is carried out using the EBDA/ligand V3.0 programme (McPherson, J. Pharmacol. Methods 14, 213-228, 1985). Plotting in the dose-response graph makes possible the estimation of the IC50 (concentration which causes 50% inhibition of the reaction at the receptor) and the EBDA/ligand programme calculates the dissociation constant Kd [nM] from this.

Water solubility = type: physicochemical
histamine release = assay: Histamine release in vitro
[2] = test system: testosterone in the blood; assay: Hormone-suppressive action: testosterone suppression in the healthy male rat; type: in vivo
Protocol: To determine the suppression of testosterone in the blood of healthy male rats, the substance was injected subcutaneously into the right flank of the animals. The dosage was 1.5 mg/kg in the case of Example 1 and Example 2 and 10 mg/kg in the case of Example 56. To check the testosterone values, about 300 μl of blood were taken from the animals from the sublingual vein at the times 0, 2, 4, 8 (only Example 56), 24, 48, 72 and 96 hours, and then every 3 days until the end of suppression. […] Example 56 (10 mg/kg s.c.) suppressed the testosterone level in all 5 animals even after 2 hours and maintained this action for up to 8 hours. At the next measuring point (24 h), the testosterone values rose again (FIG. 6).

human LH-RH receptor [3] = molecular target: T1, human LH-RH receptor; assay: Functional assay: inhibition of LH-RH-stimulated IP3 formation in cell clone L 3.5/78; type: cell-based; conditions: for IC50: stimulation with 10 nM LH-RH, estimated from dose-response curve
Protocol: Method for the determination of IP3 (D-myo-[…]): a subconfluent culture of the cell clone (L 3.5/78) overexpressing the human LH-RH receptor is washed 1× with PBS, the cells are removed with PBS/EDTA and the cell suspension is pelletted. The cells are resuspended in incubation medium (Dulbecco's modified Eagle Medium with 4.5 g/l of glucose, 10 mM Hepes pH 7.5, 0.5% w:v BSA, 5 mM of LiCl, 1 g/l of bacitracin, 0.1 g/l of SBTI), aliquoted into 1.5 ml reaction vessels and preincubated at 37° C. for 30 min. 4×10^6 cells in a 500 μl volume are needed per measuring point. After the preincubation step, LH-RH (stock solution 0.5 mM in 10 mM tris pH 7.5, 1 mM dithiothreitol, 0.1% w:v BSA/Bachem Art # H4005) are added to the cell suspension at a final concentration of 10 nM. The action of an antagonist is tested by simultaneous addition at the corresponding concentration (for example 0.0316, 0.1, 0.316 etc. up to 100 nM for Example 2). As a negative control, cells without added LH-RH are incubated. After incubation at 37° C. for 15 min, IP3 formed is isolated from the cells by means of trichloroacetic acid (TCA) extraction. To this end, 500 μl of ice-cold 15% (w:v) TCA solution are added to the cell suspension. The resulting precipitate is pelletted by centrifugation at […] in the Heraeus Biofuge 15R centrifuge at 2000×g for 15 min. The supernatant of 950 μl is extracted 3× with 10 vol of cold, water-saturated diethyl ether in a 15 ml vessel standing on ice. After the last extraction step, the solution is adjusted to a pH of 7.5 with 0.5 M NaHCO3 solution.
The determination of the IP3 concentration in the cell extracts is carried out by means of a sensitive competitive binding test using an IP3 binding protein, labelled [^3 H]-IP3 and unlabelled IP3. To this end, an assay kit from Amersham (TRK 1000) is used; the determination is carried out as described in the assay protocol. After carrying out the various steps, 2 ml of scintillator for aqueous samples (Rotiszint Ecoplus) is finally added, the resuspended pellet containing the bound [^3 H]-IP3 is carefully mixed with it, and measured in a β-scintillation counter. The amount of cellular IP3 is calculated using a standard curve and a dose-response curve is set up. The IC50 can be estimated from the inflection point of this curve.

[4] = [125I] Cetrorelix as ligand, single curves of FIG. 1, read-out: binding affinity as the dissociation constant Kd (competition curves of FIG. 1)
[5] = mean values from various experiments, number of experiments in brackets, read-out: Affinity human LH-RH receptor (dissociation constant Kd)
[6] = 10 mg/kg s.c., healthy male rats, all 5 animals

SMILES | Kd (human LH-RH receptor [1]; [4]) [nM] | Kd (human LH-RH receptor [1]; [5]) [nM] | H2O Solubility (Water solubility) [mg/mL] | (IC50) Histamine releage (histamine release) [µg/mL] | IC50 (human LH-RH receptor [3]) [nM] | also measured
CC(=O)N[C@H](Cc1ccc2ccccc2c1)C(=O)N[C@H](Cc1ccc(Cl)cc1)C(=O)N[C@H](Cc1cccnc1)C(=O)N[C@@H](CO)C(=O)N[C@@H](Cc1ccc(O)cc1)C(=O)N[C@H](CCCCNC(=O)C1CNC(=O)N1)C(=O)N[C@@H](CC(C)C)C(=O)N[C@@H](CCCNC(=N)N)C(=O)N1CCC[C@H]1C(=O)N[C@H](C)C(N)=O (single isomer, unassigned) [Example 1, Ac-D-Nal(2)-D(pCl)Phe-D-Pal(3)-Ser-Tyr-D-[ε-N'-(imidazolidin-2-on-4-yl)formyl]-Lys-Leu-Arg-Pro-D-Ala-NH2] | 0.305 | 0.306 | 27 | 31.9 |  | 
CC(=O)N[C@H](Cc1ccc2ccccc2c1)C(=O)N[C@H](Cc1ccc(Cl)cc1)C(=O)N[C@H](Cc1cccnc1)C(=O)N[C@@H](CO)C(=O)N[C@@H](Cc1ccc(O)cc1)C(=O)N[C@H](CCCCNC(=O)C1CNC(=O)N1)C(=O)N[C@@H](CC(C)C)C(=O)N[C@@H](CCCNC(=N)N)C(=O)N1CCC[C@H]1C(=O)N[C@H](C)C(N)=O (single isomer, unassigned) [Example 3] |  | 0.17 |  |  |  | 
CC(=O)N[C@H](Cc1ccc2ccccc2c1)C(=O)N[C@H](Cc1ccc(Cl)cc1)C(=O)N[C@H](Cc1cccnc1)C(=O)N[C@@H](CO)C(=O)N[C@@H](Cc1ccc(O)cc1)C(=O)N[C@H](CCCNC(N)=O)C(=O)N[C@@H](CC(C)C)C(=O)N[C@@H](CCCNC(=N)N)C(=O)N1CCC[C@H]1C(=O)N[C@H](C)C(N)=O [Cetrorelix, Ac-D-Nal(2)-D-p-Cl-Phe-D-Pal(3)-Ser-Tyr-D-Cit-Leu-Arg-Pro-D-Ala-NH2, reference compound] (Ac-[d2Nal][dPhe(4-Cl)][d3Pal]SY[dCit]LRP[dA]-NH2) | 0.214 | 0.202 | 9 | 9.7 |  | (1.5 mg/kg, single dose) testosterone suppression rats ([2]; 1.5 mg/kg, single dose, rats): 144 h

More lines, main results first:

Kd (human LH-RH receptor [1]; [4]) [nM] | Kd (human LH-RH receptor [1]; [5]) [nM] | H2O Solubility (Water solubility) [mg/mL] | (IC50) Histamine releage (histamine release) [µg/mL] | IC50 (human LH-RH receptor [3]) [nM] | SMILES | also measured
0.104 |  | 23 | 17.1 | ~0.4 | CC(=O)N[C@H](Cc1ccc2ccccc2c1)C(=O)N[C@H](Cc1ccc(Cl)cc1)C(=O)N[C@H](Cc1cccnc1)C(=O)N[C@@H](CO)C(=O)N[C@@H](Cc1ccc(O)cc1)C(=O)N[C@H](CCCCNC(=O)CCC(=O)Nc1ccc(C(=N)N)cc1)C(=O)N[C@@H](CC(C)C)C(=O)N[C@@H](CCCNC(=N)N)C(=O)N1CCC[C@H]1C(=O)N[C@H](C)C(N)=O [Example 2, Ac-D-Nal(2)-D(pCl)Phe-D-Pal(3)-Ser-Tyr-D-[ε-N'-4-(4-amidinophenyl)amino-1,4-dioxobutyl]-Lys-Leu-Arg-Pro-D-Ala-NH2] (Ac-[d2Nal][dPhe(4-Cl)][d3Pal]SY[dK]([Suc-NH(4-amidinophenyl)])LRP[dA]-NH2) | Kd (human LH-RH receptor [1]; quoted in Example 84, read-out: in vitro binding affinity Kd, competitive binding test using [125I]-Cetrorelix): 0.109 nM
 | 0.206 |  |  |  | CC(=O)N[C@H](Cc1ccc2ccccc2c1)C(=O)N[C@H](Cc1ccc(Cl)cc1)C(=O)N[C@H](Cc1cccnc1)C(=O)N[C@@H](CO)C(=O)N[C@@H](Cc1ccc(O)cc1)C(=O)N[C@H](CCCCNC(=O)CCC(=O)Nc1ccc(C(=N)N)cc1)C(=O)N[C@@H](CC(C)C)C(=O)N[C@@H](CCCNC(=N)N)C(=O)N1CCC[C@H]1C(=O)N[C@H](C)C(N)=O [Example 4] (Ac-[d2Nal][dPhe(4-Cl)][d3Pal]SY[dK]([Suc-NH(4-amidinophenyl)])LRP[dA]-NH2) | 
 | 1080 |  |  | ~4000 | N=C(N)c1ccc(NC(=O)CCC(=O)NCCCCC(NC(=O)OCc2ccccc2)C(N)=O)cc1.O=C(O)C(F)(F)F (stereo not shown) [Example 56] | functional character at the LH-RH receptor (human LH-RH receptor [3]; 10 nM LH-RH, IP3 formation): functional antagonists of LH-RH; agonistic activity (stimulation of IP3 synthesis by the substance itself) (human LH-RH receptor [3]; without LH-RH): not possible to determine any agonistic activity; duration of testosterone suppression [2, 6]: up to 8 hours; time at which testosterone level was already suppressed [2, 6]: 2 h
